Activity calls are given as the source filed them.
Experiments:
[1] = target: T1, Heat shock factor protein 1 (Mus musculus, UniProt P38532); assay: inhibition of MG132-induced HSE-luciferase signal, confirmation, cell-based, NIH3T3, luminescence, dose retest (AID 2382); assay type: functional;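 also: NIH3T3 fibroblasts with HSF1-driven luciferase reporter stressed by proteasome inhibitor MG132; luminescence from HSF1-driven luciferase expression after 8 hours of MG132 stress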
T1 sequence (P38532 whole entry): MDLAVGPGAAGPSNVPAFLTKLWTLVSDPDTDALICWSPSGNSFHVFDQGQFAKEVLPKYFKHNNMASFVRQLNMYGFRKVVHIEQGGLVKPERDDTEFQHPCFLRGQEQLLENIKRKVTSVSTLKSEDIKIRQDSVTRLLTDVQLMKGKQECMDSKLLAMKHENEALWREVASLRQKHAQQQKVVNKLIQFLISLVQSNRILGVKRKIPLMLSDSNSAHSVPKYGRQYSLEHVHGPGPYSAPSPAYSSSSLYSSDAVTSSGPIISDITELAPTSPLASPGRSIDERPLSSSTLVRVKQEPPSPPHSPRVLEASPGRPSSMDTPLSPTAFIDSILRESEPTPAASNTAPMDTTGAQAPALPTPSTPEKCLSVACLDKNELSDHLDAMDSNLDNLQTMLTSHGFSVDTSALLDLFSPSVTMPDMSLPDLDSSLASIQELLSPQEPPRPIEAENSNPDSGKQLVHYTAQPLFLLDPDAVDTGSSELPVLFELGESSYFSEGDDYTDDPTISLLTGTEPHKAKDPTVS

[2] = HEp-2 cell cytotoxicity, dose response, cytotoxicity control for RSV inhibitor project, HTS (AID 2410); assay type: functional; details: human respiratory syncytial virus
[3] = target: Cytochrome P450 2C19 (Homo sapiens, UniProt P33261); assay: Cytochrome panel assay with activity outcomes. Panel member name: p450-cyp2c19 Compounds with AC50 equal or less than 10 uM are considered active; assay type: functional
Sequence of Cytochrome P450 2C19 (P33261 whole entry): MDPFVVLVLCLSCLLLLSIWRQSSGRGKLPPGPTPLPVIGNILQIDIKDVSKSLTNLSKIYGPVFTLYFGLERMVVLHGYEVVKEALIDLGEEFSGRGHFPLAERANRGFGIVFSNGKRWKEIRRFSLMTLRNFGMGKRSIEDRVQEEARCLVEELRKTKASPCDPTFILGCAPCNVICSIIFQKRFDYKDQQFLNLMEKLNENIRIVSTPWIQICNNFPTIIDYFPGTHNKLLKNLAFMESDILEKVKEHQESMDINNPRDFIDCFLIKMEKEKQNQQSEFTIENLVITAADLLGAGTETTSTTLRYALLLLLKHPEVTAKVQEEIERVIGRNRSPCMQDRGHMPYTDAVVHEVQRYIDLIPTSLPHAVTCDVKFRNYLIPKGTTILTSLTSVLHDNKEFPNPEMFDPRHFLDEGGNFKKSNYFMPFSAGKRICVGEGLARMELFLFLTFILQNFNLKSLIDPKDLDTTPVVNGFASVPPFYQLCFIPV

[4] = target: Cytochrome P450 2D6 (Homo sapiens, UniProt P10635);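 also: CYP2D6 member of a cytochrome P450 panel assay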
Sequence of Cytochrome P450 2D6 (P10635 whole entry): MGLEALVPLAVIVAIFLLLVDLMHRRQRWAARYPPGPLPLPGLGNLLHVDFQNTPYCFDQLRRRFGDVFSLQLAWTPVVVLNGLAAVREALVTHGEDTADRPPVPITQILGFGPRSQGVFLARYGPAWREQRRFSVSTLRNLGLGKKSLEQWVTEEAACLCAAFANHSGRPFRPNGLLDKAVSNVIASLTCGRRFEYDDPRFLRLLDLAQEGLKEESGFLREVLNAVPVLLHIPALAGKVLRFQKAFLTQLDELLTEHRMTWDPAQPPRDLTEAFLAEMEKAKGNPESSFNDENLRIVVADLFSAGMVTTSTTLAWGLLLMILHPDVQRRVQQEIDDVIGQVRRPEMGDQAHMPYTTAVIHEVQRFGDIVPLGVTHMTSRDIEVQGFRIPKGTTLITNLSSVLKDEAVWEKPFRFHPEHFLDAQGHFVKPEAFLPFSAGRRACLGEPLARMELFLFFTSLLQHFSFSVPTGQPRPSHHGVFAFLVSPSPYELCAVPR

[5] = target: Cytochrome P450 2C9 (Homo sapiens, UniProt P11712)
Sequence of Cytochrome P450 2C9 (P11712 whole entry): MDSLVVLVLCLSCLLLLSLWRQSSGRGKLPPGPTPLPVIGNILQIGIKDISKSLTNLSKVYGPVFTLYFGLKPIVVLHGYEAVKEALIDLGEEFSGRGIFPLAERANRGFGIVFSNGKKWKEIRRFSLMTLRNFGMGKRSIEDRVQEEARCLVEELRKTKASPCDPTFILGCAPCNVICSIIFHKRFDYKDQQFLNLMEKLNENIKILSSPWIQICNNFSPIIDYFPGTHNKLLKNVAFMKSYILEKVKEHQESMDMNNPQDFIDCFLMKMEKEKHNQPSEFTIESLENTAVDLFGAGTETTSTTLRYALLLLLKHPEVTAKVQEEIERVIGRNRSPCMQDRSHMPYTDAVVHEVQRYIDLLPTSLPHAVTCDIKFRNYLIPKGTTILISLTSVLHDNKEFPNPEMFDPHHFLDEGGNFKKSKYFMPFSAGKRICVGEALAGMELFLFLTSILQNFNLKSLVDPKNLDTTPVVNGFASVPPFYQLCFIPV

[6] = Luminescence Cell-Based Dose Response HTS to Identify Activators of Luciferase Translation or Activity in H4 […] Cells. [Related pubchem assays: 1829 (Project Summary), 1814 (Primary HTS)]; assay type: functional
[7] = test system: H4; assay: Luminescence Cell-Based Dose Response HTS to Identify Activators of 5'UTR Stem-Loop Driven Prion Protein mRNA Translation in H4 Neuroglioblastoma Cells. [Related pubchem assays: 1829 (Project Summary), 1814 (Primary HTS)]; assay type: functional; details: Homo sapiens
[8] = target: Cytochrome P450 3A4 (Homo sapiens, UniProt P08684);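 also: CYP3A4 tested as one member of a cytochrome P450 panel screen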
Sequence of Cytochrome P450 3A4 (P08684 whole entry): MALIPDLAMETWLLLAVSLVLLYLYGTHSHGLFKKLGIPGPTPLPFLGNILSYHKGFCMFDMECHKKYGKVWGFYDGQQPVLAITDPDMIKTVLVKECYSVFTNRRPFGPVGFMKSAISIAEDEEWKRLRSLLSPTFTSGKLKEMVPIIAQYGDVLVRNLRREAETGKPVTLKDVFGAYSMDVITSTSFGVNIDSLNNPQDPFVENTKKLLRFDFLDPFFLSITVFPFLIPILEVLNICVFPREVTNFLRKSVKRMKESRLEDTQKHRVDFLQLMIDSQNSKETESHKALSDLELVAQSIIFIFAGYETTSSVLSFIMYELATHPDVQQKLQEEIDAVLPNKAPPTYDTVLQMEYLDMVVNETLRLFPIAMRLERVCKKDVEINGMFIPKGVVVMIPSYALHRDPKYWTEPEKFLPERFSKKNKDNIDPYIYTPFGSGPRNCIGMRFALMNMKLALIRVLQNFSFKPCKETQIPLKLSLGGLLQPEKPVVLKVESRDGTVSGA

[9] = target: T2, Cytochrome P450 1A2 (Homo sapiens, UniProt P05177);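 also: PubChem cytochrome P450 panel assay, CYP1A2 panel member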
T2 sequence (P05177 whole entry): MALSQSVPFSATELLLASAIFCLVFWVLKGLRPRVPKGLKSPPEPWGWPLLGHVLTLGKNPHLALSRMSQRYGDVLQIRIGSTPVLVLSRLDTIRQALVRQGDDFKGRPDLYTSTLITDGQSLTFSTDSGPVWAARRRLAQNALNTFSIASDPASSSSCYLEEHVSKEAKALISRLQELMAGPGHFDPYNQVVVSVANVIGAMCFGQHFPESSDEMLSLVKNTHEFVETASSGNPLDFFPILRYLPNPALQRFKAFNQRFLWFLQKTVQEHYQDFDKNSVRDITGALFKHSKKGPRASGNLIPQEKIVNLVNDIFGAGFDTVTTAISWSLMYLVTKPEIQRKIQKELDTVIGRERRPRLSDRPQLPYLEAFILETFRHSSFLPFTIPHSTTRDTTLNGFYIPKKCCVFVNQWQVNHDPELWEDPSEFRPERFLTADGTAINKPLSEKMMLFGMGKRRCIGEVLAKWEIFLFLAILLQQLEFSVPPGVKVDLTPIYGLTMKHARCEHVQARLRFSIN

[10] = Luminescence Cell-Based Dose Response HTS to Identify Inhibitors of 5'UTR Stem-Loop Driven Prion Protein mRNA Translation in H4 Neuroglioblastoma Cells. [Related pubchem assays: 1827 (Project Summary), 1813 (Primary HTS)]; assay type: functional

Cc1cc(-c2ccc(C)c(S(=O)(=O)NCCC(C)N3CCCCCC3)c2)on1 (stereo unspecified)
EC50 [1]: > 195 µM (not active)

COc1ccc(NC(=O)C2C(c3ccccc3)C2(Cl)Cl)cc1 (stereo unspecified)
CC50 [2]: 17.7 µM (active)

CC(CCc1ccccc1)NC(=O)CCNS(=O)(=O)c1ccccc1 (stereo unspecified)
EC50 [1]: > 195 µM (not active)

C/C=C/c1ccc(OCC(=O)NCc2ccccc2OC)c(OC)c1
CC50 [2]: 40.4 µM (active)

COc1cc(C(=O)Nc2ccccc2NC(=O)c2cc(OC)c(OC)c(OC)c2)cc(OC)c1OC
EC50 [1]: > 195 µM (not active)

CCO/C(O)=C1\C(C)=NC2=C(C(=O)CCC2)C1c1cn(Cc2ccc(Cl)cc2Cl)nc1-c1ccccc1 (stereo unspecified)
CC50 [2]: 30.6 µM (active)

O=C(COC(=O)COc1ccccc1)Nc1ccc(OC(F)(F)F)cc1
AC50 [3]: 39.8 µM (inconclusive)

Cc1ccccc1CSc1nccn1-c1ccccc1
AC50 [4]: 17.8 µM (inconclusive)

c1ccc2c(c1)-c1nc3ccccc3cc1[C@H]2N1CCOCC1
AC50 [5]: 6.31 µM (inconclusive)
AC50 [3]: 3.16 µM (inconclusive)

S=C(c1ccc(-c2ccc(Cl)cc2Cl)o1)N1CCCCC1
EC50 [6]: 50 µM (active)
EC50 [7]: 1.97 µM (active)

Cn1c(CSc2nc3cc(Br)ccc3[nH]2)nc2ccccc21
CC50 [2]: > 50 µM (active)

CCCNC(=O)c1ccc(COc2ccc(CCC)cc2OC)o1
EC50 [1]: > 195 µM (not active)

COc1ccc(NC(=O)C(F)(F)F)cc1OC
AC50 [5]: 39.8 µM (inconclusive)
AC50 [3]: 22.4 µM (inconclusive)

CCc1nn(C(C)C(=O)N2CCN(c3ccccc3)CC2)c(=O)c2cc3occc3n12 (stereo unspecified)
CC50 [2]: 20.4 µM (active)

COc1cccc(Nc2cc(C)c3ccccc3n2)c1
CC50 [2]: 32 µM (active)

CCOC(=O)c1c(-c2ccccc2)cn2ccccc12
AC50 [4]: 3.16 µM (inconclusive)
AC50 [8]: 12.6 µM (inconclusive)

c1ccc(CCCNc2nnnc3ccccc23)cc1
AC50 [3]: 3.16 µM (inconclusive)

Cc1cccc(Cn2cnc3c(NS(C)(=O)=O)c(C)c(C)cc32)c1
AC50 [4]: 35.5 µM (inconclusive)
AC50 [5]: 1.26 µM (inconclusive)

CCCOc1ccc(-c2n[nH]c(S)n2)cc1
CC50 [2]: 25.1 µM (active)

COc1ccc(/C=N/N(C)C2=NCCN2)c(OC)c1OC
EC50 [1]: > 195 µM (not active)

Cc1noc(C)c1-c1ccc2ncnc(Nc3ccc(F)cc3)c2c1
AC50 [4]: 39.8 µM (inconclusive)
AC50 [8]: 15.8 µM (inconclusive)

COc1ccc2c(C)cc(N3CCOCC3)nc2c1
AC50 [3]: 31.6 µM (inconclusive)

Cc1noc(C)c1C(=O)N1CCC[C@@]2(CCN(c3ccccc3)C2)C1
AC50 [5]: 20 µM (inconclusive)
AC50 [3]: 25.1 µM (inconclusive)
AC50 [9]: 25.1 µM (inconclusive)

CC1Cc2ccccc2N1C(=O)Cn1c(=O)cc(O)c2ccccc21 (stereo unspecified)
AC50 [4]: 39.8 µM (inconclusive)
AC50 [3]: 22.4 µM (inconclusive)

Nc1ncnc2[nH]c(N3CCN(C(=O)c4ccccc4)CC3)nc12
EC50 [1]: > 195 µM (not active)

CC1(C)Cc2c(C#N)c(NCCO)nc(-c3ccco3)c2CO1
EC50 [1]: > 195 µM (not active)

CC(=O)Nc1ccc(O)c(-c2nc3ccccc3s2)c1
EC50 [6]: 21.2 µM (active)
EC50 [7]: 22.5 µM (active)

Cc1ccc2nc(-c3ccc(NC(=O)COC(=O)c4ccc([N+](=O)[O-])o4)cc3)sc2c1
EC50 [10]: 10.9 µM (inconclusive)

O=C(COC(=O)/C=C/c1ccc(C(F)(F)F)cc1)NC1CC1
EC50 [1]: > 195 µM (not active)

CN(C)C(=O)c1ccc(-c2ccc3ncnc(NCc4cccs4)c3c2)cc1
AC50 [4]: 20 µM (inconclusive)

CC(C)NC(=O)COC(=O)C1CSC2(c3ccc(Br)cc3)CCC(=O)N12 (stereo unspecified)
EC50 [1]: > 195 µM (not active)

CNc1ncncc1-c1ccccc1C(F)(F)F
AC50 [4]: 39.8 µM (inconclusive)
AC50 [3]: 39.8 µM (inconclusive)

CN(NC1OC(=O)c2ccccc21)c1ccc(C(F)(F)F)cc1[N+](=O)[O-] (stereo unspecified)
EC50 [1]: > 195 µM (not active)

CCOC(=O)C(/C=N/CC(=O)O)=C(\O)OCC
AC50 [4]: 39.8 µM (inconclusive)

C/C(=N/NC(=O)CNC(=O)c1ccccn1)c1ccc([N+](=O)[O-])cc1
EC50 [1]: > 195 µM (not active)

COc1cc(/C=C2/C(=N)N3N=C(CC(=O)N4CCOCC4)SC3=NC2=O)ccc1OCc1ccccc1
EC50 [6]: 10.5 µM (active)
EC50 [7]: 14.5 µM (active)

CC1CCN(C(S)=NCCc2ccccc2)CC1
EC50 [6]: 0.102 µM (active)
EC50 [7]: 31.3 µM (active)

COc1ccccc1-c1ccc2ncnc(N(C)C)c2c1
AC50 [4]: 12.6 µM (inconclusive)

O=C(CN1c2ccccc2Sc2ccccc21)NNC(=O)Nc1ccc(Cl)cc1
CC50 [2]: > 50 µM (active)

Cc1ccc(/N=C/c2ccc[nH]2)c(O)c1
EC50 [1]: > 195 µM (not active)

COc1ccc([C@H]2CC(=O)C=C(c3ccc(Cl)c(C(F)(F)F)c3)C2)cc1
CC50 [2]: 12.9 µM (active)

CCOC(=O)C1=C(NC(=S)NC(=O)c2ccccc2)c2ccccc2CC1(C)CC (stereo unspecified)
CC50 [2]: 12.5 µM (active)

Cc1csc(NC(=O)C2=COCCO2)n1
EC50 [6]: 3.11 µM (active)
EC50 [7]: > 120 µM (not active)

CCn1c(SCc2nc3ccccc3[nH]2)nnc1-c1ccc(OC)cc1
AC50 [4]: 20 µM (inconclusive)

CCCNC(=O)Nc1ccc2c(c1)nc(C)n2C
AC50 [3]: 0.562 µM (inconclusive)
AC50 [9]: 15.8 µM (inconclusive)

Nc1nc2ccc(Cl)cc2c2nc(-c3ccco3)nn12 [CGS-15943]
AC50 [4]: 12.6 µM (inconclusive)
AC50 [5]: 31.6 µM (inconclusive)
AC50 [8]: 7.94 µM (inconclusive)

CCOC(=O)c1c(C)[nH]c(C2=NN=C(NC3CC3)SC2)c1C
CC50 [2]: 28.1 µM (active)

O=C(NCc1ccccc1C(F)(F)F)C1CC(c2ccc(C(F)(F)F)cc2)=NO1 (stereo unspecified)
EC50 [1]: > 195 µM (not active)

COC(=O)c1ccccc1NC(=O)c1ccc(F)cc1
AC50 [3]: 25.1 µM (inconclusive)

CCOC(=O)N1CCN(c2nc(-c3cccs3)nc3ccccc23)CC1
CC50 [2]: > 50 µM (active)

c1ccc2c(NC3CC3)nc(-c3ccoc3)nc2c1
AC50 [3]: 25.1 µM (inconclusive)

COc1ccc2nc(O)c(CNc3ccccc3)cc2c1
CC50 [2]: 34.4 µM (active)

CC/C(O)=C(\C#N)c1nnc2n1CCCCC2
AC50 [3]: 1 µM (inconclusive)
AC50 [9]: 14.1 µM (inconclusive)

— ChEMBL document CHEMBL1201862, “PubChem BioAssay data set” (2004)
